Columns and labels:
[1] = tested on: transplant cell viability and colonization; test: Adjuvants compared with ascorbic acid in transplantable cell cultures (Example VI); format: in vivo; settings: treatment of cells prior to transplantation into a target organ
Excerpt: In separate experiments, treatment with other adjuvants or treatments were compared with treatment with ascorbic acid. [formula]

injured myocardium = test: Transplantation of hES-derived cardiomyocytes pretreated with ascorbic acid into LAD-ligated heart, graft/infarct ratio; format: in vivo, Mice
Excerpt: The ascorbic acid-treated cells can become large conglomerates of cells in the injected tissue and thereby can restore major portions of a damaged heart muscle when compared with tissue injected with untreated cells. The proportion of host tissue target organ restored by the grafted cultured cells can be evaluated by a measure termed the “graft/infarct ratio”. The graft/infarct ratio is the ratio of the portion of the ‘dead tissue’ area of the target organ that is restored and/or replaced by transplanted cells of bioartificial tissue. The ratio is determined by dividing a measured area of the restored and/or replaced area by the total measured area of ‘dead tissue’. In addition, a measure or growth and/or of viability can be determined by other methods known in the art. Such methods include, staining of tissue slices with trypan blue to determine extent of dye exclusion, determining nucleic acid uptake of tritiated thymidine into proliferating cells, and staining of tissue slices with toluidin blue to determine extent of dye uptake.
Human ES (hES) cell lines, H1 and H7 (Mummery et al., (2002) supra; Hescheler, B. K. et al. (1997) Cardiovasc. Res. 36:149-162) were initially maintained on feeders in ES medium containing 80% knockout Dulbecco's modified Eagle's medium (KO-DMEM) (Invitrogen, Carlsbad Calif.), 1 mM L-glutamine, 0.1 mM β-mercaptoethanol, 1% nonessential amino acids stock (Invitrogen), 20% Serum Replacement (Invitrogen, Carlsbad Calif.) and 4 ng/ml hbFGF (Invitrogen). The cells were later maintained using feeder-free conditions, herein described. Briefly, feeder-free cultures were passaged by incubation in 200 units/ml collagenase IV for 5-10 minutes at 37° C., dissociated and then seeded onto MATRIGEL-coated plates and maintained in conditioned medium (CM) prepared from primary mouse embryonic fibroblast cultures.
Confluent H7 hES cell cultures were incubated with 0.5 mM EDTA in phosphate-buffered saline (PBS) at 37° C. for 8 min, dissociated, resuspended in CM and replated onto MATRIGEL-coated plates at ˜1×10^6 cells/cm^2. […]

chondrocytes = settings: cited from earlier work

## O=C1O[C@H]([C@@H](O)CO)C(O)=C1O [ascorbic acid]
[1]
  Increase in transplant cell viability and colonization: at least 47 fold
Injured myocardium; 24 hours (treated) vs six hours (untreated, R=0.09:1.0) after transplantation
  Increase of graft/infarct ratio compared with untreated cells: 4.6 fold
Injured myocardium; 7 days, 14 days, and 28 days following transplantation
  Effects on colonization and viability of pretreated cells at subsequent time points: sustained
Injured myocardium; cells pretreated 24 hrs with 1 mM ascorbic acid, 24 hours following transplantation, total damaged area 536,594 μm^2, FIG. 5
  Area of the tissue populated by transplanted cells: 215,525 μm^2
chondrocytes; 2×10^5 cells starting number, 50 μg/ml ascorbic acid, three weeks in vitro
  Viable cells in the gelled culture: approximately 12×10^5 cells
chondrocytes; chondrocytes incubated three weeks in vitro vs absence of ascorbic acid
  Increase in cell viability: approximately ten-fold
chondrocytes; starting number 2×10^6 cells
  Viable cells after three weeks incubation: 2.6×10^6 cells
